{"source": "paper PMC12136037", "about": "“Type II kinase inhibitors that target Parkinson’s disease–associated LRRK2” (Science Advances, 2025)", "key": {"[1]": {"target": "T1, LRRK2^RCKW (Homo sapiens, UniProt Q5S007)", "T1 construct": "LRRK2 R1327 to E2527; His6-Z-tag (TEV cleavable) (N, cleaved yes); host or cells: Sf9 insect cells (baculovirus)", "T1 sequence (Q5S007 1327-2527)": "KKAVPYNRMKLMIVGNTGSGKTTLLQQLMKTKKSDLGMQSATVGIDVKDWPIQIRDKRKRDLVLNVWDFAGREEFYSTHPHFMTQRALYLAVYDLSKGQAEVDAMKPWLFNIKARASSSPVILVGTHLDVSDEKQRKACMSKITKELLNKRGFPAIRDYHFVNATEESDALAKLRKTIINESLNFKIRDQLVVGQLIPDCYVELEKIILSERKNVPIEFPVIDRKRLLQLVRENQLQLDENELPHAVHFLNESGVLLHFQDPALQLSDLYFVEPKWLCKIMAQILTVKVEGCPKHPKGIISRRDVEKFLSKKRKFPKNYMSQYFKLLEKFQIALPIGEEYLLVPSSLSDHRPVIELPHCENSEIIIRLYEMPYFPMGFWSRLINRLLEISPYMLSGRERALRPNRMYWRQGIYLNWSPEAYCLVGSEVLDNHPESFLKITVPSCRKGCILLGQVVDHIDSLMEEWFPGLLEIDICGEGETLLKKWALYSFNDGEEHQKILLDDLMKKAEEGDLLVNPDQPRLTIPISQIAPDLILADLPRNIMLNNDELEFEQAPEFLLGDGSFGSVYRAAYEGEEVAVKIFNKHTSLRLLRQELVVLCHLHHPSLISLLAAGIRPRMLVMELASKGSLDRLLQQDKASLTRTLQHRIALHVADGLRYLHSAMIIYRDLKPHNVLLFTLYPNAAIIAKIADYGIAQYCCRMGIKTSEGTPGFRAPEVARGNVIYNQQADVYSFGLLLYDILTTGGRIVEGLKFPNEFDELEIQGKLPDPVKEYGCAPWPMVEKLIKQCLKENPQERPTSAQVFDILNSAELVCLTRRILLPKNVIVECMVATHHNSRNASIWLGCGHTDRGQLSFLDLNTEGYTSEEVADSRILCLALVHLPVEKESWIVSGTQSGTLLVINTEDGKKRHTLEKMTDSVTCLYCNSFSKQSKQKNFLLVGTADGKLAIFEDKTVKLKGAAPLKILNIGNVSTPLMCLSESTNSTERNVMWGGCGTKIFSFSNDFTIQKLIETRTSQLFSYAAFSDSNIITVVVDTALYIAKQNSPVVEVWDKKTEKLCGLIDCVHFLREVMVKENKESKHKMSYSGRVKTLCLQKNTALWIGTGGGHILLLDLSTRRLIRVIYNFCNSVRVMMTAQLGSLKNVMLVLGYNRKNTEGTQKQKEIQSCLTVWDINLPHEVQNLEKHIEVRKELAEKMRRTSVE", "assay": "Biochemical LRRK2 activity assay (PhosphoSense, AssayQuant SOX peptide AQT0615)", "settings": "normalized to 0% (no kinase) and 100% (no inhibitor) control, two singlicate columns per compound", "procedure,_shortened": "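Controls lacked protein and compound (0%) or compound only (100%). IC50 derived by nonlinear regression of normalized response versus log[inhibitor].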"}, "[2]": {"target": "T2, ~100 representative kinases (Homo sapiens, UniProt Q2M2I8)", "T2 construct": "Recombinant protein kinase domains with a concentration of 2 μM", "T2 sequence (Q2M2I8 whole entry, the tested form may be a part)": "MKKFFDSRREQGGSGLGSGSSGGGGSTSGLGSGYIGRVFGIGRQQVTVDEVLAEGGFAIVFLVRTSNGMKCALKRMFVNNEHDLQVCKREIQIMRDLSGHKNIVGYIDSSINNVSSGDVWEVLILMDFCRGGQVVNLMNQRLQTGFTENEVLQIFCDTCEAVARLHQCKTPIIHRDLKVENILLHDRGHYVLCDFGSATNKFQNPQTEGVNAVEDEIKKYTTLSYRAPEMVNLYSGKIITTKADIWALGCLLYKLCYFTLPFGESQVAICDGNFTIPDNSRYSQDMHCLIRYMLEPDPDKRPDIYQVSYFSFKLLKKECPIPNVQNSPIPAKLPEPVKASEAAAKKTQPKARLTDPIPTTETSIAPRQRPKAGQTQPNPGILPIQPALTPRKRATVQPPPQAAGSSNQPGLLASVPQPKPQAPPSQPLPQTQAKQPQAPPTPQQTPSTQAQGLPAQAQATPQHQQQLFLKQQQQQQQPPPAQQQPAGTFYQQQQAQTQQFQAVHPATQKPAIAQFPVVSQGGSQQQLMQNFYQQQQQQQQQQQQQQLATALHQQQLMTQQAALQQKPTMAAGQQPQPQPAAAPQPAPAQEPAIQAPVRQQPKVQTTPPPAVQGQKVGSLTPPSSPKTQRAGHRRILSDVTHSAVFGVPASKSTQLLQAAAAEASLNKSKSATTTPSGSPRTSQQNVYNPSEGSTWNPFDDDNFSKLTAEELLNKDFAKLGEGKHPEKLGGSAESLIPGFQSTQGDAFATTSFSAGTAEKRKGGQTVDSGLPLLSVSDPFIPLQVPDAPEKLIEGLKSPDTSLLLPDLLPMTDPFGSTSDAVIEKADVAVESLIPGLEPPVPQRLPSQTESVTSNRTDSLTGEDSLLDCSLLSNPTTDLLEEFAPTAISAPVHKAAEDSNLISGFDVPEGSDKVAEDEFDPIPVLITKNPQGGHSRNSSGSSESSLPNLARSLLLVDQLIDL", "assay": "DSF 100 kinase selectivity screen;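 also: compound tested at 20 µM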", "assay_type": "binding", "settings": "Protein AAK1; average of three replicates", "procedure,_shortened": "(§1)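 Each kinase domain, at 2 μM, is mixed with 20 μM test compound and SYPRO Orange in Hepes (20 mM, pH 7.5) with 500 mM NaCl. Temperature is then raised at 3°C/min and fluorescence-monitored unfolding yields the melting temperature change, ΔTm in degrees Celsius.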"}, "[3]": {"target": "T3, ~100 representative kinases (Homo sapiens, UniProt Q5VT25)", "T3 construct": "Recombinant protein kinase domains with a concentration of 2 μM", "T3 sequence (Q5VT25 whole entry, the tested form may be a part)": "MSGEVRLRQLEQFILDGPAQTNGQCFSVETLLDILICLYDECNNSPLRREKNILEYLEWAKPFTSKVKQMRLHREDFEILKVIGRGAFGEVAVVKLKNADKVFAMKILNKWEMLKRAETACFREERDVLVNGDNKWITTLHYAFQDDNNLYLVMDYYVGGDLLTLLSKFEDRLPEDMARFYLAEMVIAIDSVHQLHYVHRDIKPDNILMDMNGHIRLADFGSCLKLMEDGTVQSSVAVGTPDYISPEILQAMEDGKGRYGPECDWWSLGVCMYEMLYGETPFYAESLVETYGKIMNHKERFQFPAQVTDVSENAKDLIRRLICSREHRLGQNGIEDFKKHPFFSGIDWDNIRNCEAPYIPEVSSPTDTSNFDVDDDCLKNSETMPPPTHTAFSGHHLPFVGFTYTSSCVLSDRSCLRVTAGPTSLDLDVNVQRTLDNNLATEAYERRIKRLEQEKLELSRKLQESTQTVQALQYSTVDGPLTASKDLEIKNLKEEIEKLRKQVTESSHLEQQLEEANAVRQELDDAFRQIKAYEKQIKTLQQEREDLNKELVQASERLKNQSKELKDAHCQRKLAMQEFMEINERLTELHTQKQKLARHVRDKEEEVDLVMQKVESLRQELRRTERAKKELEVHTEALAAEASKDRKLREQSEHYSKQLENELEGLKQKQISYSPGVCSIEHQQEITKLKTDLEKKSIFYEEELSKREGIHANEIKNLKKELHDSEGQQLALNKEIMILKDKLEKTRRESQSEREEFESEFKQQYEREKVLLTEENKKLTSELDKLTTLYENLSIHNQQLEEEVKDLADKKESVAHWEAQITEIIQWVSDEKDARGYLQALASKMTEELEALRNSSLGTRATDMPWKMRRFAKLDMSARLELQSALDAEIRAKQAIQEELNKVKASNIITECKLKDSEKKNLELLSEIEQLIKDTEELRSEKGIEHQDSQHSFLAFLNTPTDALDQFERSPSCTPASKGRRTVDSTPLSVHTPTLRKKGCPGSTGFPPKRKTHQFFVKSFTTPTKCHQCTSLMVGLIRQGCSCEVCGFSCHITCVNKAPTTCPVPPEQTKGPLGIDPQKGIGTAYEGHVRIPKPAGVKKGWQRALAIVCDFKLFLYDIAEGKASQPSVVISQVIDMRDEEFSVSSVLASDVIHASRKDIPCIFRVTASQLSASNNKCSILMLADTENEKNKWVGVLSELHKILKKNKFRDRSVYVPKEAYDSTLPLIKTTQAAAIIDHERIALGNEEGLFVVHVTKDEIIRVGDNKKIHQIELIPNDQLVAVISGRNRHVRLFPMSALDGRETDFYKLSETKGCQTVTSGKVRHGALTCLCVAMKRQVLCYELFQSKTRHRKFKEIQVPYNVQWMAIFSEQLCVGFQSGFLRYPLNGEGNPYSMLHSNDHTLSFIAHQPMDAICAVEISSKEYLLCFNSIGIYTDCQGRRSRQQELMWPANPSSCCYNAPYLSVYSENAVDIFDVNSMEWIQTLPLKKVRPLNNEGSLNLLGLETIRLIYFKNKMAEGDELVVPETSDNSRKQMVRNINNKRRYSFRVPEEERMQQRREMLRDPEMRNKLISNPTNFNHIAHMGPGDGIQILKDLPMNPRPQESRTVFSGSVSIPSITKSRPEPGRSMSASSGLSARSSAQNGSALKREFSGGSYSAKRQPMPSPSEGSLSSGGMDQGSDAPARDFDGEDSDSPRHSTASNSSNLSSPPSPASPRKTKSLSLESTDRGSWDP", "assay": "DSF 100 kinase selectivity screen", "assay_type": "binding", "settings": "Protein CDC42BPA; average of three replicates", "procedure,_shortened": "as §1"}, "[4]": {"target": "T4, ~100 representative kinases (Homo sapiens, UniProt P12931)", "T4 construct": "Recombinant protein kinase domains with a concentration of 2 μM", "T4 sequence (P12931 whole entry, the tested form may be a part)": "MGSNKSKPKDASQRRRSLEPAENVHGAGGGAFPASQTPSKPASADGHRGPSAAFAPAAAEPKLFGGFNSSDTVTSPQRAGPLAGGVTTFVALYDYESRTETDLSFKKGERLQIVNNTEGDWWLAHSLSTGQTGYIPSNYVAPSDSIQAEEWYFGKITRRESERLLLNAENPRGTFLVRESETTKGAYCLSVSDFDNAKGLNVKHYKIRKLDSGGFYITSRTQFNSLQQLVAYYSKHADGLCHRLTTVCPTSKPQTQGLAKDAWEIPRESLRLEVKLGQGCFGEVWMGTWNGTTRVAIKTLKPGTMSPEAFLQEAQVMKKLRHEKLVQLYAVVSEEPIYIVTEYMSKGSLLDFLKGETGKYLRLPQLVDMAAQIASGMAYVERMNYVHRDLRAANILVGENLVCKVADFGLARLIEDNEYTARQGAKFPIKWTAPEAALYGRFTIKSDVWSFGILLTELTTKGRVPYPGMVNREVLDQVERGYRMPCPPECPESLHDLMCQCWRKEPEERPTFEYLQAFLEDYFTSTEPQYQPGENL", "assay": "DSF 100 kinase selectivity screen", "assay_type": "binding", "settings": "Protein SRC; DSF; average of three replicates", "procedure,_shortened": "as §1"}, "[5]": {"target": "T5, ~100 representative kinases (Homo sapiens, UniProt O96013)", "T5 construct": "Recombinant protein kinase domains with a concentration of 2 μM", "T5 sequence (O96013 whole entry, the tested form may be a part)": "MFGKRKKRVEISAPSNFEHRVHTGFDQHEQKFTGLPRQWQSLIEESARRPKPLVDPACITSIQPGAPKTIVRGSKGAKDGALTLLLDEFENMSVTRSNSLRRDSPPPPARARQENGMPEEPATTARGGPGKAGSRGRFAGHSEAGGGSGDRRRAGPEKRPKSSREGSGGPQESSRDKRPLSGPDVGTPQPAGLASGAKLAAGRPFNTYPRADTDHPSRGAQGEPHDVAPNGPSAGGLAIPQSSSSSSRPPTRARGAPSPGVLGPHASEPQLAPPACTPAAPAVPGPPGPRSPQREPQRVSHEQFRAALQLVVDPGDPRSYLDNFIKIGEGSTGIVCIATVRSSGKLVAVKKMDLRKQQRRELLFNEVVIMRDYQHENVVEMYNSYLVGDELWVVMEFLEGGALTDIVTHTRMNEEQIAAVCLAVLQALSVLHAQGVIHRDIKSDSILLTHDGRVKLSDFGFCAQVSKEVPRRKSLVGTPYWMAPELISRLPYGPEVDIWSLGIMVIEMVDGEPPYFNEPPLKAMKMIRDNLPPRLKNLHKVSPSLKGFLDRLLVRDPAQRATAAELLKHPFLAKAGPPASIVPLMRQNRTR", "assay": "DSF 100 kinase selectivity screen", "assay_type": "binding", "settings": "protein PAK4; average of three replicates", "procedure,_shortened": "as §1"}, "[6]": {"target": "T6, ~100 representative kinases (Homo sapiens, UniProt Q9H4A3)", "T6 construct": "Recombinant protein kinase domains with a concentration of 2 μM", "assay": "DSF 100 kinase selectivity screen", "assay_type": "binding", "settings": "Protein WNK1; DSF; average of three replicates", "procedure,_shortened": "as §1"}, "[7]": {"target": "T7, ~100 representative kinases (Homo sapiens, UniProt P27448)", "T7 construct": "Recombinant protein kinase domains with a concentration of 2 μM", "T7 sequence (P27448 whole entry, the tested form may be a part)": "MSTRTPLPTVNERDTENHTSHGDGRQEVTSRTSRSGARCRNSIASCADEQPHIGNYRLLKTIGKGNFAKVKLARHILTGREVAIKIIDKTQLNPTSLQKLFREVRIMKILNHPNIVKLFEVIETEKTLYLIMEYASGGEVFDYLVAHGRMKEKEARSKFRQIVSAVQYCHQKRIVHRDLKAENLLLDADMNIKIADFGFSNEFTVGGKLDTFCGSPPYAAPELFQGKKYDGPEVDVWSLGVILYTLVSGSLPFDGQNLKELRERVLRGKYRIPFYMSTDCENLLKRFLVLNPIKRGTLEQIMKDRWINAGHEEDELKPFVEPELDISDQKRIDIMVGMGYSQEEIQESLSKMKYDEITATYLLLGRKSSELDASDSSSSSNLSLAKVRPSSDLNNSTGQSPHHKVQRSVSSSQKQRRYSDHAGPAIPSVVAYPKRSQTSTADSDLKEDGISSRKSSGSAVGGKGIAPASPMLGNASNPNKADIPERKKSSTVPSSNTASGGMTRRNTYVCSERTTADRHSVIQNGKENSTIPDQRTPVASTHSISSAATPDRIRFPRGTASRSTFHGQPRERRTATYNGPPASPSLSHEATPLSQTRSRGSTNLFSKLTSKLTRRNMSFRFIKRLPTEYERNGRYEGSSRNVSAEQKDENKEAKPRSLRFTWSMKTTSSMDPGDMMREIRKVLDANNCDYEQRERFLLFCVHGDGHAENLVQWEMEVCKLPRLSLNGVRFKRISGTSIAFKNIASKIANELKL", "assay": "DSF 100 kinase selectivity screen", "assay_type": "binding", "settings": "protein MARK3; average of three replicates", "procedure,_shortened": "as §1"}}, "note": "Where “and” joins values, the source holds several entries; their conditions need not be identical. Equal entries are not always repeated.", "data": [{"smiles": "COc1cc2c(Oc3ccc(NC(=O)C4(C(=O)Nc5ccc(F)cc5)CC4)cc3F)ccnc2cc1OCCCN1CCOCC1", "note": "[Foretinib, reference compound]", "values": [{"measurement": "normalized response (LRRK2 activity)", "setting": "[1]; log[inhibitor(mol)] -5.12494", "result": "-8.307% and -10.693%"}, {"measurement": "normalized response (LRRK2 activity)", "setting": "[1]; log[inhibitor(mol)] -5.60206", "result": "-1.8523% and 5.65%"}, {"measurement": "normalized response (LRRK2 activity)", "setting": "[1]; log[inhibitor(mol)] -6.30103", "result": "28.3235% and 31.8978%"}, {"measurement": "normalized response (LRRK2 activity)", "setting": "[1]; log[inhibitor(mol)] -6.90309", "result": "69.5315% and 73.0571%"}, {"measurement": "normalized response (LRRK2 activity)", "setting": "[1]; log[inhibitor(mol)] -7.30103", "result": "85.8697% and 90.8136%"}, {"measurement": "normalized response (LRRK2 activity)", "setting": "[1]; log[inhibitor(mol)] -7.60206", "result": "93.5528% and 93.9107%"}, {"measurement": "normalized response (LRRK2 activity)", "setting": "[1]; log[inhibitor(mol)] -8.09691", "result": "88.4499% and 91.6177%"}, {"measurement": "normalized response (LRRK2 activity)", "setting": "[1]; log[inhibitor(mol)] -8.61979", "result": "92.1788% and 92.8283%"}, {"measurement": "normalized response (LRRK2 activity)", "setting": "[1]; log[inhibitor(mol)] -9.09691", "result": "95.8547% and 84.8889%"}, {"measurement": "normalized response (LRRK2 activity)", "setting": "[1]; log[inhibitor(mol)] -9.39794", "result": "98.1654% and 60.9912%"}, {"measurement": "dTm", "setting": "[2]", "result": 0.82, "unit": "K"}, {"measurement": "dTm", "setting": "[3]", "result": 0.32, "unit": "K"}, {"measurement": "dTm", "setting": "[4]", "result": 8.21, "unit": "K"}, {"measurement": "dTm", "setting": "[5]", "result": 0.34, "unit": "K"}, {"measurement": "dTm", "setting": "[6]", "result": 1.01, "unit": "K"}, {"measurement": "dTm", "setting": "[7]", "result": 3.96, "unit": "K"}]}, {"smiles": "Cc1ccc(C(=O)Nc2ccc(CN3CCN(C)CC3)c(C(F)(F)F)c2)cc1C#Cc1cnc2[nH]ncc2c1", "note": "[GZD-824, reference compound]", "values": [{"measurement": "normalized response (LRRK2 activity)", "setting": "[1]; log[inhibitor(mol)] -4.82391", "result": "37.9506% and 22.443%"}, {"measurement": "normalized response (LRRK2 activity)", "setting": "[1]; log[inhibitor(mol)] -5.12494", "result": "2.902% and -0.761%"}, {"measurement": "normalized response (LRRK2 activity)", "setting": "[1]; log[inhibitor(mol)] -6.30103", "result": "-12.6856% and -11.6517%"}, {"measurement": "normalized response (LRRK2 activity)", "setting": "[1]; log[inhibitor(mol)] -6.90309", "result": "-14.8328% and -12.1996%"}, {"measurement": "normalized response (LRRK2 activity)", "setting": "[1]; log[inhibitor(mol)] -7.30103", "result": "-10.7195% and -10.9051%"}, {"measurement": "normalized response (LRRK2 activity)", "setting": "[1]; log[inhibitor(mol)] -7.60206", "result": "-2.449% and -0.1425%"}, {"measurement": "normalized response (LRRK2 activity)", "setting": "[1]; log[inhibitor(mol)] -8.09691", "result": "77.0511% and 75.7389%"}, {"measurement": "normalized response (LRRK2 activity)", "setting": "[1]; log[inhibitor(mol)] -8.61979", "result": "100.887% and 96.9327%"}, {"measurement": "normalized response (LRRK2 activity)", "setting": "[1]; log[inhibitor(mol)] -9.09691", "result": "102.124% and 93.9328%"}, {"measurement": "normalized response (LRRK2 activity)", "setting": "[1]; log[inhibitor(mol)] -9.39794", "result": "100.847% and 103.781%"}, {"measurement": "dTm", "setting": "[2]", "result": 5.77, "unit": "K"}, {"measurement": "dTm", "setting": "[3]", "result": -1.37, "unit": "K"}, {"measurement": "dTm", "setting": "[4]", "result": 2.45, "unit": "K"}, {"measurement": "dTm", "setting": "[5]", "result": 3.27, "unit": "K"}, {"measurement": "dTm", "setting": "[6]", "result": 0.53, "unit": "K"}, {"measurement": "dTm", "setting": "[7]", "result": 3.47, "unit": "K"}]}]}
